Assay results: US8827946B2 (Shin Nippon Biomedical Laboratories, Ltd., priority 2009, dated 2014)
Like-named read-outs stand apart in the source and are kept apart here.

Test: Phase 1 clinical study, pharmacokinetics of granisetron after intravenous and intranasal administration
Format: in vivo, human
Experimental: This was an open-label safety and PK study conducted at a single site in which healthy volunteers, at weekly intervals, were given the reference intravenous dose, followed by three single escalating nasal doses of TRG at weekly intervals.
Subjects received one intravenous dose of Kytril® (10 μg/kg) followed by three escalating single doses of TRG. There was a 7 day washout period between each dose.
The following PK parameters were tested: AUC0-last (ng·h/mL), AUCinf (ng·h/mL), Tmax (hours), Cmax (ng/mL), T1/2 (hours), clearance, and volume of distribution. No efficacy variables were assessed in this safety and PK study.
The PK parameters T1/2, Tmax, Cmax, AUC0-last, and AUCinf were calculated by using noncompartmental analysis. Values for Tmax and Cmax were reported as the observed values. Terminal elimination rate constants (λz) were determined by log-linear regression of the terminal portion of the concentration-time curves (FIG. 8). Values for T1/2 were calculated as (ln 2)/λz, and AUC0-last was determined by the linear trapezoidal method. AUCinf was calculated as the sum of AUC0-last and Clast/λz where Clast is the last measurable concentration. The absolute bioavailability (F) was calculated for each subject by the dose-corrected AUCinf intranasal divided by AUCinf intravenous. Apparent clearance and volume of distribution were also calculated. To determine the relationship between pharmacokinetic parameters (Cmax, AUClast, and AUC0-∞) and dosage, a multiple regression analysis was performed with log-transformed values. For other pharmacokinetic parameters, analysis of variance (ANOVA) using the mixed effect model was performed to compare between groups.

[1] = human, plasma, 10 ug/kg, intravenous 10 μg/kg (Kytril), healthy male volunteers, mean, N=8
[2] = human, plasma, inhaled or intranasal, intranasal 0.5 mg (TRG capsule, single nostril), healthy male volunteers, mean
[3] = human, plasma, inhaled or intranasal, intranasal 1.0 mg (TRG capsule, single nostril), healthy male volunteers, mean
[4] = human, plasma, inhaled or intranasal, intranasal 2.0 mg (TRG capsule, single nostril), healthy male volunteers, mean
[5] = intranasal 0.5 mg (TRG capsule, single nostril), healthy male volunteers, mean
[6] = intranasal 1.0 mg (TRG capsule, single nostril), healthy male volunteers, mean
[7] = intranasal 2.0 mg (TRG capsule, single nostril), healthy male volunteers, mean

- AUC(0-inf) [1]: 103 ng·h/mL
- AUC(0-t) [1]: 92.4 ng·h/mL
- Cmax [1]: 16.6 ng/mL
- clearance [1]: 158 mL/min
- half-life (human, plasma, 10 ug/kg, intravenous 10 μg/kg (Kytril), healthy male volunteers, mean, N=8, read-out: T1/2 (converted)): 8.52 h
- Vd (human, plasma, 10 ug/kg, intravenous 10 μg/kg (Kytril), healthy male volunteers, mean, N=8, read-out: Vss): 108 L
- AUC(0-inf) [2]: 52.7 ng·h/mL
- AUC(0-t) [2]: 46.9 ng·h/mL
- Cmax [2]: 4.95 ng/mL
- half-life (human, plasma, inhaled or intranasal, intranasal 0.5 mg (TRG capsule, single nostril), healthy male volunteers, mean, read-out: T1/2 (converted)): 8.9 h
- AUC(0-inf) [3]: 119 ng·h/mL
- AUC(0-t) [3]: 105 ng·h/mL
- Cmax [3]: 13.3 ng/mL
- half-life (human, plasma, inhaled or intranasal, intranasal 1.0 mg (TRG capsule, single nostril), healthy male volunteers, mean, read-out: T1/2 (converted)): 9.52 h
- AUC(0-inf) [4]: 236 ng·h/mL
- AUC(0-t) [4]: 210 ng·h/mL
- Cmax [4]: 26.6 ng/mL
- half-life (human, plasma, inhaled or intranasal, intranasal 2.0 mg (TRG capsule, single nostril), healthy male volunteers, mean, read-out: T1/2 (converted)): 9.29 h
- CL/F [5]: 10.6 L/h
- Vz [5]: 131.4 L
- CL/F [6]: 9.1 L/h
- Vz [6]: 122.6 L
- CL/F [7]: 9.2 L/h
- Vz [7]: 122.0 L
- Tmax (male, human, plasma, inhaled or intranasal, 0.5 mg, intranasal 0.5 mg (TRG capsule, single nostril), healthy male volunteers, mean, read-out: Tmax): 1.34 h
- Tmax (male, human, plasma, inhaled or intranasal, 1 mg, intranasal 1.0 mg (TRG capsule, single nostril), healthy male volunteers, mean, read-out: Tmax): 0.34 h
- Tmax (male, human, plasma, inhaled or intranasal, 2 mg, intranasal 2.0 mg (TRG capsule, single nostril), healthy male volunteers, mean, read-out: Tmax): 0.63 h
- Tmax (male, human, plasma, inhaled or intranasal, 2 mg, intranasal, 0.5, 1.0 and 2.0 mg doses together, read-out: overall mean Tmax): 0.75 h
- half-life (male, human, plasma, inhaled or intranasal, after intranasal administration, all dose levels, read-out: overall mean half-life (converted)): 9.23 h
- Tmax (male, human, plasma, iv, 10 ug/kg, intravenous 10 μg/kg (Kytril), healthy male volunteers, mean, N=8, read-out: Tmax): 0.18 h
- Tmax (male, human, plasma, iv, 10 μg/kg, intravenous rapid infusion 10 μg/kg, all subjects except one, read-out: Tmax): 0.0833 to 0.167 h
Compound: CN1C2CCCC1CC(NC(=O)c1nn(C)c3ccccc13)C2 (stereo not drawn) [Granisetron, endo-N-(9-methyl-9-azabicyclo[3.3.1]non-3-yl)-1-methyl-1H-indazole-3-carboxamide]
